“Also recorded” adds a separate entry of the source.
Assays:
[1] = molecular target: T1, Plx2A (Paenibacillus larvae, UniProt M9V3B7); test: biochemical; format: binding
[2] = tested on: Escherichia coli; set-up: method as in PMID 34740095; conditions: cited from earlier work
[3] = tested on: Staphylococcus aureus; set-up: method as in PMID 34740095; conditions: cited from earlier work
[4] = tested on: Pseudomonas aeruginosa; set-up: method as in PMID 34740095; conditions: cited from earlier work
[5] = molecular target: T1, Plx2A; test: biochemical
[6] = tested on: model insect cell culture; set-up: method as in PMID 34564612; conditions: cited from earlier work
[7] = molecular target: T1, Plx2A; conditions: cited from earlier work
[8] = tested on: C3bot1; conditions: cited from earlier work
[9] = tested on: Vis toxin; set-up: method as in PMID 26352925; conditions: cited from earlier work
[10] = tested on: C3larvin; set-up: method as in PMID 25477523; conditions: read-out: Ki (C3larvin mART enzymatic activity); cited from earlier work
[11] = tested on: P. larvae ERIC I-infected honey bee larva; set-up: method as in PMID 34564612; conditions: P. larvae ERIC I infection; cited from earlier work

| Structure (SMILES) | Kd [1] [µM] | IC50 [5] [µM] | Protection of cultured insect cells from Plx2A intoxication [6] | Inhibition of Plx2A GH activity [7] | also measured |
| --- | --- | --- | --- | --- | --- |
| O=c1c(O)c(-c2ccc(O)c(O)c2)oc2cc(O)cc(O)c12 [Quercetin, 2-(3,4-dihydroxyphenyl)-3,5,7-trihydroxy-4H-chromen-4-one] | 19.9 ± 0.4 | 24.3 ± 0.8 | – | – | Antibacterial activity [2]: potent antibacterial activity; Antibacterial activity [3]: potent antibacterial activity; Antibacterial activity [4]: potent antibacterial activity; Ki [5]: 18 ± 2.8 µM; Mechanism of inhibition of Plx2A GH activity (Lineweaver-Burk) [5]: non-competitive inhibition; also recorded: non-competitive mechanism |
| O=c1cc(-c2ccccc2)oc2cc(O)cc(O)c12 [Chrysin, 5,7-dihydroxy-2-phenyl-4H-chromen-4-one] | 40.6 ± 4.7 | 49.2 ± 2.5 | – | – | – |
| O=c1cc(-c2ccccc2)oc2cc(O)c(O)c(O)c12 [Baicalein, 5,6,7-trihydroxy-2-phenyl-4H-chromen-4-one] | – | – | not Baicalein | strong inhibitors | – |
| CS(=O)(=O)NC[C@@H]1CCCN(c2ncnc3[nH]ncc23)C1 [Inhibitor M3, N-{[(3R)-1-{1H-pyrazolo[3,4-d]pyrimidin-4-yl}piperidin-3-yl]methyl}methanesulfon amide] | – | 216 ± 22.7 | protected the cultured cells from Plx2A intoxication | potent inhibitor; also recorded: strong inhibitors | Inhibition of C3bot1 [8]: effective inhibitor; Concentration that protected the cell culture against Plx2A cytotoxicity (prevented bi-nucleated cells) [6]: 300 µM; Inhibition of Vis toxin [9]: effective inhibitor; Ki [10]: 11 µM; Protection of honey bee larva / reduction of larval mortality [11]: failed to protect honey bee larva |
| COc1cc(-c2cc(=O)c3c(O)c(OC)c(O)cc3o2)ccc1O [Jaceosidin, 5,7-dihydroxy-2-(4-hydroxy-3-methoxyphenyl)-6-methoxy-4H-chromen-4-one] | 24.1 ± 2.9 | 73.9 ± 4.7 | – | – | – |
| O=c1cc(-c2ccc(O)c(O)c2)oc2cc(O)cc(O)c12 [Luteolin, 2-(3,4-dihydroxyphenyl)-5,7-dihydroxy-4H-chromen-4-one] | 24 ± 1.5 | 68.1 ± 1.8 | – | – | – |
| O=c1c(O)c(-c2ccc(O)cc2)oc2cc(O)cc(O)c12 [Kaempferol, 3,5,7-trihydroxy-2-(4-hydroxyphenyl)-4H-chromen-4-one] | 37.3 ± 3.6 | 79.9 ± 6 | – | – | – |
| COc1ccc(-c2cc(=O)c3c(O)cc(O)cc3o2)cc1 [Acacetin, 5,7-dihydroxy-2-(4-methoxyphenyl)-4H-chromen-4-one] | – | – | protected the cultured cells from Plx2A intoxication | strong inhibitors | Concentration that protected the cell culture against Plx2A cytotoxicity (prevented bi-nucleated cells) [6]: 30 µM |
| O=c1c(O)c(-c2ccc(O)cc2O)oc2cc(O)cc(O)c12 [Morin, 2-(2,4-dihydroxyphenyl)-3,5,7-trihydroxy-4H-chromen-4-one] | 32.8 ± 11.7 | 109 ± 4.8 | – | – | – |
